Results: patent publication US7387999B2, “Simmondsin for use as angiogenesis inhibitor” (priority 2002, dated 2008)
Like-named read-outs stand apart in the source and are kept apart here.

Assays:
human oestrogen receptor = molecular target: T1, human oestrogen receptor (Homo sapiens, UniProt P03372); assay: oestrogenic bioassay; format: cell-based; conditions: yeast with human oestrogen receptor; 1, 10, 100, 1000 μM; 3 days; compared to 17 beta-oestradiol standards, FIG. 11
T1 construct: expressed in transfected cells; host or cells: Saccharomyces cerevisiae (recombinant yeast)
T1 sequence (P03372 1-595): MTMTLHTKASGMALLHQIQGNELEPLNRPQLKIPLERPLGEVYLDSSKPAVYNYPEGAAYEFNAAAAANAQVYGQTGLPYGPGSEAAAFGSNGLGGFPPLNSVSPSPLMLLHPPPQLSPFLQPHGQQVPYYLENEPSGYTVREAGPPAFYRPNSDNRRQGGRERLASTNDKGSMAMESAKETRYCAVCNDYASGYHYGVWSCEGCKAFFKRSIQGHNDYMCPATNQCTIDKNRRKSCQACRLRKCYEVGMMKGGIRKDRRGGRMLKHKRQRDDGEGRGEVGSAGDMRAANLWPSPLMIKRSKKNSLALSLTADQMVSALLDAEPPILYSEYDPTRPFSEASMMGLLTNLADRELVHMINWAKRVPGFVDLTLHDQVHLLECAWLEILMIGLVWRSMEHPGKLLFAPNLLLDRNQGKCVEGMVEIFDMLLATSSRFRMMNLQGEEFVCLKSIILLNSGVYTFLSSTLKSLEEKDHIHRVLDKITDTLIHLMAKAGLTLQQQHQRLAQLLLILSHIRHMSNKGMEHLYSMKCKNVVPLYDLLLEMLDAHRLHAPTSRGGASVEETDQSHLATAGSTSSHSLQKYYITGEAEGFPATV
Experimental: In an experiment, yeast cells (Saccharomyces cerevisiae) containing a human oestrogen receptor (100 μl) was added to 25 ml growth medium. The growth medium comprised • D-glucose (2.5 ml from 20 g D-glucose in 80 ml water); • L-aspartic acid (0.625 ml from 400 mg in 100 ml water); • vitamin solution (0.250 ml from 8 mg thiamine, 8 mg pyridoxine, 8 mg panthotenic acid, 40 mg inositol and 20 ml biotin solution (2 mg in 100 ml water) in 180 ml water); • L-threonine (0.2 ml from 2.4 g in 100 ml water), copper(II)sulphate (0.0625 ml from 160 mg in 50 ml water); • minimal medium (22.5 ml from 1 l water composed of 13.61 g potassium dihydrogenphosphate, 1.98 g ammonium sulphate, 4.2 g potassium hydroxide, 1 ml iron(III)sulphate (40 mg in 50 ml water), 50 mg L-leucine, 50 mg L-histidine, 50 mg adenine, 20 mg L-arginine hydrochloride, 20 mg L-methionine, 30 mg L-tyrosine, 30 mg L-isoleucine, 30 mg L-lysine hydrochloride, 25 mg L-phenylalanine, 100 mg L-glutamic acid, 150 mg L-valine, 375 mg L-serine); and chlorophenol red beta-D-galactopyranoside (0.250 ml).
17 beta-oestradiol (20 μl aliquots from 0.008 nM to 100 nM, prepared from 10 mg in 10 ml ethanol) and test compounds, in concentrations of 1, 10, 100, 1000 μM, were pipetted into 96-well plates in a sterile flow hood. The solvent was left to evaporate for about 40 min.
The growth medium containing yeast was dispensed to all wells, except blank wells, in aliquots of 100 μl. The plates were incubated at 32° C. in a humidified atmosphere for 3 days, and then read at 540/360 nm by a microtiter plate reader (labsystems Muliskan Ascent Reader, Thermo labsystems, Vantaa, Finland).

[1] = system: chorion allantois membrane (CAM); assay: chorion allantois membrane (CAM) assay; format: in vivo, chicken; conditions: for effect on blood vessel growth in the CAM (in words): Experiment 1
Experimental: Fertilized chicken eggs are incubated during 4 days at 37° C. Subsequently, the egg shell is opened to disclose the CAM. In order to reduce the pressure on the CAM for improving its manipulating properties, 2 to 3 ml albumen is removed. The opening is closed using cellophane tape and the eggs are further incubated until day 9 for application of the liquid test compounds using different concentrations. Dulbecco's modified Eagle medium (DMEM) was used as a negative control, whereas Vascular Endothelial Growth factor (VEGF) was used as a positive control (stimulator of angiogenesis). A total polar extract from refined, de-oiled jojoba flour, dimethylsimmondsin purified from this extract and a commercially known angiogenesis inhibitor (Tangeritin) were compared in their angiogenesis-inhibiting activity towards VEGF stimulated angiogenesis in the CAM's. Each of these solubilized test compositions was pipetted on a sterile plastic disc (10 mm diameter) and dried under sterile conditions.
Each disc was treated with cortisone acetate (100 μg/50 μl) in order to avoid inflammatory reactions. After drying, the discs were placed on the CAM with the charged side facing the CAM. The control disc (DMEM) was placed at 1 cm of the disc containing the test component. The opening was sealed with cellophane tape and the eggs were further incubated. At day 11, the tape and discs were removed and 10% buffered formaline was sprayed over the CAM. Eggs were allowed to dry for 2 to 4 h at room T°. Then, the CAM was cut out of the egg and mounted on a glass slide. The vascular density index is measured according to Harris-Hooker et al. (1983; J. Cell. Physiol. 114:302-310); all micro vessels that cross 3 concentric circles with a diameter of 6, 8 and 10 mm were counted, as illustrated on FIG. 2.
The angiogenetic Index (AI) is expressed as {(t/c)×100}−100, whereby t=total number of crossing vessels where the disc containing the test component was located, and c=total number of crossing vessels where the control disc was located. […]

angiogenesis = conditions: in vitro and in vivo assays
[2] = system: human microvascular endothelial cells (hMVEC); assay: in vitro angiogenesis assay: tube formation in 3-D fibrin matrices; format: cell-based; conditions: hMVEC on 3-D fibrin matrix, VEGF-A 25 ng/mL and TNFα 10 ng/mL, 7 days, FIG. 8
Experimental: Human fibrin matrices were prepared by the addition of 0.1 U/ml thrombin to a commercially obtained (Chromogenix AB, Mölndal, Sweden) mixture of 2 mg/ml fibrinogen (final concentrations), 2 mg/ml Na-citrate, 0.8 mg/ml NaCl, 3 μg/ml plasminogen in M199 medium and 2.5 U/ml factor XIII. 100 μl aliquots of this mixture were added to the wells of 96-well plates. After clotting at room temperature, the fibrin matrices were soaked with M199 supplemented with 10% HS and 10% NBCS for 2 h at 37° C. to inactivate the thrombin. […] Invading cells and the formation of tubular structures of hMVEC in the three-dimensional fibrin matrix were analysed by phase contrast microscopy. The total length of tube-like structures of four microscopic fields (7.3 mm^2/field) were (clockwise) measured using an Olympus CK2 microscope equipped with a monochrome CCD camera (MX5) connected to a computer with Optimas image analysis software, and expressed as mm/cm^2 (Koolwijk et al. J. Cell Biol. 1996, 132:1177-188).
HMVEC were cultured on top of a 3-D fibrin matrix in M199, 10% human serum, 10% NBCS supplemented with VEGF-A (25 ng/mL) and TNFα (10 ng/mL) in the presence or absence of the indicated concentrations (w/v) of the compositions A1, A2, A3, A4, A5, B4, B5 and B6. […] The data are expressed as the mean of two wells indicated by the error bars (FIG. 8 B).

## 4,5-dimethylsimmondsin [A4]
Human oestrogen receptor
  oestrogen-like activity: no significant oestrogen-like activity
[1]
  effect on blood vessel growth in the CAM (in words): significant angiogenesis inhibition comparable with tangeritin
[1]; Experiments 2 and 3, A4 in the same concentration as the total polar extract
  angiogenesis-inhibiting activity in the CAM (in words): lower than the total polar extract but nevertheless still significant

## 4,5-dimethylsimmondsin ferulate (cis/trans) [A5]
angiogenesis
  angiogenesis-inhibiting activity (overall conclusion): higher angiogenesis-inhibiting activity than the unsubstituted dimethylsimmondsin
angiogenesis; listed as dimethylsimmondsin ferulates
  angiogenesis-inhibiting activity (overall conclusion): significant angiogenesis-inhibiting activity, which is higher than the activity of unsubstituted dimethylsimmondsin

## COC1CC(OC2OC(CO)C(O)C(O)C2O)C(=CC#N)C(O)C1O (stereo not shown) [4-desmethylsimmondsin]
Human oestrogen receptor
  oestrogen-like activity: no significant oestrogen-like activity

## CO[C@H]1[C@@H](O)C[C@@H](O[C@@H]2O[C@H](CO)[C@@H](O)[C@H](O)[C@H]2O)/C(=C\C#N)[C@@H]1O [5-desmethylsimmondsin]
Human oestrogen receptor
  oestrogen-like activity: no significant oestrogen-like activity

## N#CC=C1CC(O)C(O)C(O)C1O[C@@H]1O[C@H](CO)[C@@H](O)[C@H](O)[C@H]1O (stereo partly shown) [B5, 4,5-didesmethylsimmondsin]
Human oestrogen receptor
  oestrogen-like activity: no significant oestrogen-like activity
[2]
  inhibition of VEGF-induced in vitro tube formation: highest biological activity

## COc1cc(C=CC(=O)OC2C(OC3CC(OC)C(OC)C(O)C3=CC#N)OC(CO)C(O)C2O)ccc1O (stereo not shown) [E simmondsin-2′-ferulate]
Human oestrogen receptor
  oestrogen-like activity: no significant oestrogen-like activity

## COc1cc(/C=C\C(=O)O[C@@H]2[C@@H](O[C@@H]3C[C@H](OC)[C@H](OC)[C@@H](O)/C3=C/C#N)O[C@@H](CO)[C@H](O)[C@H]2O)ccc1O [Z simmondsin-2′-ferulate]
Human oestrogen receptor
  oestrogen-like activity: no significant oestrogen-like activity

## VEGF [reference compound]
[1]
  effect on blood vessel growth in the CAM (in words): significant blood vessel growth compared with the negative control group (DMEM)

## desmethylsimmondsin
[2]
  inhibition of VEGF-induced in vitro tube formation: highest biological activity
